Assay results taken from ChEMBL document CHEMBL3862027, “Synthesis and antimalarial activity of N-benzylated (N-arylcarbamoyl)alkylphosphonic acid derivatives” (Bioorg Med Chem, 2016).

Columns and labels:
Plasmodium falciparum [1] = test: Antimalarial activity against Plasmodium falciparum 3D7 infected in human erythrocytes assessed as cell viability at 20 uM after 48 hrs by lactate dehydrogenase assay; format: functional
[2] = Cytotoxicity against human HeLa cells assessed as cell viability at 20 uM after 24 hrs by resazurin based fluorescence assay relative to control; format: toxicity; details: read-out: Activity
Plasmodium falciparum [3] = test: Antimalarial activity against Plasmodium falciparum 3D7 infected in human erythrocytes after 48 hrs by lactate dehydrogenase assay; format: functional, cell-based; details: 3D7, 48 h
Plasmodium falciparum [4] = test: Inhibition of Plasmodium falciparum DXR at 20 uM using DOXP as substrate preincubated for 5 mins followed by substrate addition measured for 10 mins in presence of NADPH by spectrophotometric analysis

SMILES	Activity (Plasmodium falciparum [1]) [%]	viability at 24 h, 20 µM [2] [%]	IC50 (Plasmodium falciparum [3]) [µM]	inhibition (Plasmodium falciparum [4]) [%]
CCOP(=O)(CC(=O)Nc1cccc(O)c1)OCC	52.42	117		
CCOP(=O)(CCC(=O)N(Cc1ccccc1)c1cccc(OCc2ccccc2)c1)OCC	6.84	108	16.4	
CC(=O)N(O)CCCP(=O)(O)O				73.3
O=C(CCP(=O)(O)O)N(Cc1ccccc1)c1ccccn1				0
CCOP(=O)(CCC(=O)N(Cc1ccccc1)c1cccc(CO)c1)OCC	55.44	110		
CCOP(=O)(CCC(=O)N(Cc1ccccc1)c1ccccn1)OCC	-5.33	113	22.3	
CCOP(=O)(CC(=O)Nc1cccc(Br)c1)OCC	50.91	102		
CCOP(=O)(CC(=O)Nc1cccc([N+](=O)[O-])c1)OCC	64.13	83.1		
CCOP(=O)(CCC(=O)Nc1cccc(OCc2ccccc2)c1)OCC	51.13	105		
C#CCNC(=O)CP(=O)(OCC)OCC	47.96	104		
CCOP(=O)(CC(=O)Nc1cccc(CO)c1)OCC	-7.26	123	10.1	
O=C(CCP(=O)(O)O)N(Cc1ccccc1)c1cccc(O)c1				0
C#CCNC(=O)CCP(=O)(OCC)OCC	-4.04	92	20.1	
CCOP(=O)(CC(=O)Nc1ccccn1)OCC	-19.39	131	23.1	
C#CCNC(=O)CCP(=O)(O)O				6.7
CCOP(=O)(CCC(=O)N(Cc1ccccc1)c1cccc(Br)c1)OCC	35.19	121		
CCOP(=O)(CCC(=O)N(Cc1ccccc1)c1cccc([N+](=O)[O-])c1)OCC	59.6	118		
CCOP(=O)(CCC(=O)Nc1cccc(O)c1)OCC	54.54	119		
CCOP(=O)(CCC(=O)N(Cc1ccccc1)c1cccc(O)c1)OCC	-8.05	120	15.8 to 15.9	
CCOP(=O)(CC(=O)Nc1cccc(O[Si](C)(C)C(C)(C)C)c1)OCC	61.87	85.7		
